Experimental data reported in patent US11976065B2 (CELISTA PHARMACEUTICALS LLC, priority 2020, dated 2024).

Assay: pH of the samples in water, pH probe
Type: physicochemical
Details: aqueous sample

Structure (SMILES): CC(C)Cn1cnc2c(N)nc3ccccc3c21 [Imiquimod, 1-(2-methylpropyl)-1H-imidazo[4,5-c]quinolin-4-amine]
- pH: 7.10
